Where two headings read alike, the source gives them in different places.
Assays:
Assay in all cases: KINOMEscan
Type in all cases: binding
EGFR(G719S) = EGFR(G719S) (Homo sapiens (Human), UniProt P00533, G719S); details: 10000 nM, read-out: Percent Control
PIK3CA(I800L) = PIK3CA(I800L) (Homo sapiens (Human), UniProt P42336, I800L); details: 10000 nM, read-out: Percent Control
p38-delta = p38-delta (Homo sapiens (Human), UniProt O15264); details: 10000 nM, read-out: Percent Control
FLT3(D835V) = FLT3(D835V) (Homo sapiens (Human), UniProt P36888, D835V); details: 10000 nM, read-out: Percent Control
BRAF(V600E) = BRAF(V600E) (Homo sapiens (Human), UniProt P15056, V600E); details: 10000 nM, read-out: Percent Control
BRAF(V600E), sequence (P15056 whole entry V600E): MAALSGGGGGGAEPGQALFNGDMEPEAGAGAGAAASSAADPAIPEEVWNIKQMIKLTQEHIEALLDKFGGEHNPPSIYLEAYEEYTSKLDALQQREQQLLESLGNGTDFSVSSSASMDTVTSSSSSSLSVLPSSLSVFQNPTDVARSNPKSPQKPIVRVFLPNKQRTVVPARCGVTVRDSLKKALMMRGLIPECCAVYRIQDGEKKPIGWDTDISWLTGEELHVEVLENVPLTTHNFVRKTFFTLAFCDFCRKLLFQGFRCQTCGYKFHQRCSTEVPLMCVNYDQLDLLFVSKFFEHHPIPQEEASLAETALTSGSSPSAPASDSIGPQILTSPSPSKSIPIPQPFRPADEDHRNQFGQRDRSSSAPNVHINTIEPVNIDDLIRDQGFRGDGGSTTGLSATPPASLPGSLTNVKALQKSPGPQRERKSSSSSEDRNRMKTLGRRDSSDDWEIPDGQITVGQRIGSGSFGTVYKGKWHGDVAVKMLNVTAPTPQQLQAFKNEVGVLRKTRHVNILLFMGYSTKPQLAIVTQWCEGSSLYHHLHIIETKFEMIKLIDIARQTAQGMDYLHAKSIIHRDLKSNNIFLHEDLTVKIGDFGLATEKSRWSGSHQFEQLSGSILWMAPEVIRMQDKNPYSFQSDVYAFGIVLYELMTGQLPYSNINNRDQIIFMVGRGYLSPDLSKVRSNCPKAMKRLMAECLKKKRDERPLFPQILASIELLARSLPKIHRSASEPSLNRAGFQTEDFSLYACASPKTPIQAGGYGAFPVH

TIE1 = TIE1 (Homo sapiens (Human), UniProt P35590); details: TIE1, 10000 nM; read-out: Percent Control
EPHA2 = EPHA2 (Homo sapiens (Human), UniProt P29317); details: EPHA2, 10000 nM; read-out: Percent Control
MST1 = MST1 (Homo sapiens (Human), UniProt Q13043); details: MST1, 10000 nM; read-out: Percent Control
[1] = target: ABL1(F317L)-nonphosphorylated (Homo sapiens (Human), UniProt P00519, F317L); details: 10000 nM, read-out: Percent Control
MUSK = MUSK (Homo sapiens (Human), UniProt O15146); details: 10000 nM, read-out: Percent Control
MUSK, sequence (O15146 24-869): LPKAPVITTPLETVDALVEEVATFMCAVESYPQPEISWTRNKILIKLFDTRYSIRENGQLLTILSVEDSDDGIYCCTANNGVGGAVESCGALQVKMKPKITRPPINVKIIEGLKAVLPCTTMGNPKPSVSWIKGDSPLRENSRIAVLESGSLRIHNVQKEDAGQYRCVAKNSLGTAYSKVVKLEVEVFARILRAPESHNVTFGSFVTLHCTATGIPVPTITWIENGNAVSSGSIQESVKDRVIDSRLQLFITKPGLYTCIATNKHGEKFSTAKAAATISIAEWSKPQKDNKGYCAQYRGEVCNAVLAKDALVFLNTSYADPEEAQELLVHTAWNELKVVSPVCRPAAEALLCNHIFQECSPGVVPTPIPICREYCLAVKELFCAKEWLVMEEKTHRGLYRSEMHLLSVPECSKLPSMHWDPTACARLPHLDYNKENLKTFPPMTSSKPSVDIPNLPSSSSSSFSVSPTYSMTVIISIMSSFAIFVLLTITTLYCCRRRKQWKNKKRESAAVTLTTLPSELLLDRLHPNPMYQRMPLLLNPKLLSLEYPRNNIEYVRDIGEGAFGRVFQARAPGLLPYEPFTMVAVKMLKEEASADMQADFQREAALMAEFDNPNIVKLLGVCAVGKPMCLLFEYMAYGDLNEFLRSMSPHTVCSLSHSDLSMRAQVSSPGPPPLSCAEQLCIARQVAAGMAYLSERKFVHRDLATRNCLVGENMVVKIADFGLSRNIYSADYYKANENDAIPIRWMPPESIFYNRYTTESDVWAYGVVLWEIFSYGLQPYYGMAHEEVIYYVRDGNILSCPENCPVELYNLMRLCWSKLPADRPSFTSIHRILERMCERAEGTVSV

PFPK5(P. falciparum) = PFPK5(P. falciparum) (Plasmodium falciparum (isolate 3D7), UniProt P61075); details: 10000 nM, read-out: Percent Control
[2] = target: RSK1(Kin.Dom.2-C-terminal) (Homo sapiens (Human), UniProt Q15418); details: 10000 nM, read-out: Percent Control
MAP3K1 = MAP3K1 (Homo sapiens (Human), UniProt Q13233); details: MAP3K1, 10000 nM; read-out: Percent Control
FGFR1 = FGFR1 (Homo sapiens (Human), UniProt P11362); details: FGFR1, 10000 nM; read-out: Percent Control
LCK = LCK (Homo sapiens (Human), UniProt P06239); details: 10000 nM, read-out: Percent Control
[3] = target: ABL1(M351T)-phosphorylated (Homo sapiens (Human), UniProt P00519, M351T); details: 10000 nM, read-out: Percent Control
STK35 = STK35 (Homo sapiens (Human), UniProt Q8TDR2); details: STK35, 10000 nM; read-out: Percent Control
PRKG1 = PRKG1 (Homo sapiens (Human), UniProt Q13976); details: PRKG1, 10000 nM; read-out: Percent Control
PRKG1, sequence (Q13976 whole entry): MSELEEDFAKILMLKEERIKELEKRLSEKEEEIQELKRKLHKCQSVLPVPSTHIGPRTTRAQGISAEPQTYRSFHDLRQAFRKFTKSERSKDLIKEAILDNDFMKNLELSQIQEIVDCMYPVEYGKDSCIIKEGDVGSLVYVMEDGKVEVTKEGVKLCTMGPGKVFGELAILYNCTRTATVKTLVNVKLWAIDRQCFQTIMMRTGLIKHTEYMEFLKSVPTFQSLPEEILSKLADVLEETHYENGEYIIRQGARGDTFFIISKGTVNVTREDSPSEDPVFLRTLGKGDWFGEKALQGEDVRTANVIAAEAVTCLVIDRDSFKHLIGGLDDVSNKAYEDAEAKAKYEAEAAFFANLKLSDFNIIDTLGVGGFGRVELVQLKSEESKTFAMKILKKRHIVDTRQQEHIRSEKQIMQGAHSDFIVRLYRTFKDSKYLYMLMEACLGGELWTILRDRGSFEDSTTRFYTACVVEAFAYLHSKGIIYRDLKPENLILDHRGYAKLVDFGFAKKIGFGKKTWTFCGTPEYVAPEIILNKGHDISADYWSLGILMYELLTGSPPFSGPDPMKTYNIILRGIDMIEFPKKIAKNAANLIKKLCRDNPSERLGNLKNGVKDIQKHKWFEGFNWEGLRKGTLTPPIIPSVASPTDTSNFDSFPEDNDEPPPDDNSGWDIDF

ICK = ICK (Homo sapiens (Human), UniProt Q9UPZ9); details: 10000 nM, read-out: Percent Control
YANK3 = YANK3 (Homo sapiens (Human), UniProt Q86UX6); details: YANK3, 10000 nM; read-out: Percent Control
YANK3, sequence (Q86UX6 whole entry): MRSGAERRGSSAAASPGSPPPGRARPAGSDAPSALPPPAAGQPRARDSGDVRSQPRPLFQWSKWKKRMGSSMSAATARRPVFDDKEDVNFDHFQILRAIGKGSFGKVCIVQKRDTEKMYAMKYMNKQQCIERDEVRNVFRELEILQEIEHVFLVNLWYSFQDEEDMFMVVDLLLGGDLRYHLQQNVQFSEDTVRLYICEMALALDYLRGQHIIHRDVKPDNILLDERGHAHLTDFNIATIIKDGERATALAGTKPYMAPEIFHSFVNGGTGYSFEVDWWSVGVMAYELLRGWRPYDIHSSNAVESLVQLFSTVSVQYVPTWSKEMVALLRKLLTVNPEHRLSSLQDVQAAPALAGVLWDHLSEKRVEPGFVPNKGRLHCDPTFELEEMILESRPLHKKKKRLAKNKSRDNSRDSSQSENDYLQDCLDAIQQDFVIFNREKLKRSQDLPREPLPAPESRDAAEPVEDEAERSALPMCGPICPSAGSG

[4] = target: ABL1(H396P)-nonphosphorylated (Homo sapiens (Human), UniProt P00519, H396P); details: 10000 nM, read-out: Percent Control
AMPK-alpha1 = AMPK-alpha1 (Homo sapiens (Human), UniProt Q13131); details: AMPK-alpha1, 10000 nM; read-out: Percent Control
STK36 = STK36 (Homo sapiens (Human), UniProt Q9NRP7); details: STK36, 10000 nM; read-out: Percent Control
PIK3CA(Q546K) = PIK3CA(Q546K) (Homo sapiens (Human), UniProt P42336, Q546K); details: 10000 nM, read-out: Percent Control
PRKCI = PRKCI (Homo sapiens (Human), UniProt P41743); details: 10000 nM, read-out: Percent Control
HIPK2 = HIPK2 (Homo sapiens (Human), UniProt Q9H2X6); details: HIPK2, 10000 nM; read-out: Percent Control
MAPKAPX5 = MAPKAPX5 (Homo sapiens (Human), UniProt Q8IW41); details: read-out: Percent Control
MAPKAPX5, sequence (Q8IW41 whole entry): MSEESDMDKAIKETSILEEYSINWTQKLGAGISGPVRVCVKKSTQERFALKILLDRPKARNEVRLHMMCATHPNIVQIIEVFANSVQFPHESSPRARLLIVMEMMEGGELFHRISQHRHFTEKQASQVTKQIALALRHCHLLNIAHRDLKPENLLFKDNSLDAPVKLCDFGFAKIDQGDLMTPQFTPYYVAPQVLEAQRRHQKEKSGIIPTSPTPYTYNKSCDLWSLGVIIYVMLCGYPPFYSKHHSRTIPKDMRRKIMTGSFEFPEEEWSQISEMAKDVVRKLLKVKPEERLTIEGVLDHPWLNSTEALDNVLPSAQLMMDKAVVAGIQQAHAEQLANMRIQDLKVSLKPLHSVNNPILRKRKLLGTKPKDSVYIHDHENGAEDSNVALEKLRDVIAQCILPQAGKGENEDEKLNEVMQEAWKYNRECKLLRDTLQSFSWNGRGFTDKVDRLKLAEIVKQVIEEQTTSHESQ

DAPK3 = DAPK3 (Homo sapiens (Human), UniProt O43293); details: DAPK3, 10000 nM; read-out: Percent Control
LIMK2 = LIMK2 (Homo sapiens (Human), UniProt P53671); details: LIMK2, 10000 nM; read-out: Percent Control
ERBB4 = ERBB4 (Homo sapiens (Human), UniProt Q15303); details: ERBB4, 10000 nM; read-out: Percent Control
[5] = target: TYK2(JH2domain-pseudokinase) (Homo sapiens (Human), UniProt P29597); details: 10000 nM, read-out: Percent Control
SBK1 = SBK1 (Homo sapiens (Human), UniProt Q52WX2); details: SBK1, 10000 nM; read-out: Percent Control
[6] = target: ABL1(T315I)-nonphosphorylated (Homo sapiens (Human), UniProt P00519, T315I); details: 10000 nM, read-out: Percent Control
NEK2 = NEK2 (Homo sapiens (Human), UniProt P51955); details: NEK2, 10000 nM; read-out: Percent Control
NEK2, sequence (P51955 whole entry): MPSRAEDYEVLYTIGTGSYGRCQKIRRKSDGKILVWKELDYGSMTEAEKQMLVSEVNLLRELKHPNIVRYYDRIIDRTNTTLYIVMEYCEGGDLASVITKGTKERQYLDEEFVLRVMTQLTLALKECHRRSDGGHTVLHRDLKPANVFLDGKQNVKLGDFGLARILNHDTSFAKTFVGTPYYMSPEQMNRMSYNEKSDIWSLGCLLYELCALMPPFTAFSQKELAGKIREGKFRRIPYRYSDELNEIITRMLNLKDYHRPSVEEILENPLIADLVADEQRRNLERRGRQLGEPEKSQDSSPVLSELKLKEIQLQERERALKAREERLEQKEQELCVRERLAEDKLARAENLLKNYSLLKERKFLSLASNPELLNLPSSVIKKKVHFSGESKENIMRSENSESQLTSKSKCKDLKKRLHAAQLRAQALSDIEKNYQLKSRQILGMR

EGFR(G719S), sequence (P00533 25-1210 G719S): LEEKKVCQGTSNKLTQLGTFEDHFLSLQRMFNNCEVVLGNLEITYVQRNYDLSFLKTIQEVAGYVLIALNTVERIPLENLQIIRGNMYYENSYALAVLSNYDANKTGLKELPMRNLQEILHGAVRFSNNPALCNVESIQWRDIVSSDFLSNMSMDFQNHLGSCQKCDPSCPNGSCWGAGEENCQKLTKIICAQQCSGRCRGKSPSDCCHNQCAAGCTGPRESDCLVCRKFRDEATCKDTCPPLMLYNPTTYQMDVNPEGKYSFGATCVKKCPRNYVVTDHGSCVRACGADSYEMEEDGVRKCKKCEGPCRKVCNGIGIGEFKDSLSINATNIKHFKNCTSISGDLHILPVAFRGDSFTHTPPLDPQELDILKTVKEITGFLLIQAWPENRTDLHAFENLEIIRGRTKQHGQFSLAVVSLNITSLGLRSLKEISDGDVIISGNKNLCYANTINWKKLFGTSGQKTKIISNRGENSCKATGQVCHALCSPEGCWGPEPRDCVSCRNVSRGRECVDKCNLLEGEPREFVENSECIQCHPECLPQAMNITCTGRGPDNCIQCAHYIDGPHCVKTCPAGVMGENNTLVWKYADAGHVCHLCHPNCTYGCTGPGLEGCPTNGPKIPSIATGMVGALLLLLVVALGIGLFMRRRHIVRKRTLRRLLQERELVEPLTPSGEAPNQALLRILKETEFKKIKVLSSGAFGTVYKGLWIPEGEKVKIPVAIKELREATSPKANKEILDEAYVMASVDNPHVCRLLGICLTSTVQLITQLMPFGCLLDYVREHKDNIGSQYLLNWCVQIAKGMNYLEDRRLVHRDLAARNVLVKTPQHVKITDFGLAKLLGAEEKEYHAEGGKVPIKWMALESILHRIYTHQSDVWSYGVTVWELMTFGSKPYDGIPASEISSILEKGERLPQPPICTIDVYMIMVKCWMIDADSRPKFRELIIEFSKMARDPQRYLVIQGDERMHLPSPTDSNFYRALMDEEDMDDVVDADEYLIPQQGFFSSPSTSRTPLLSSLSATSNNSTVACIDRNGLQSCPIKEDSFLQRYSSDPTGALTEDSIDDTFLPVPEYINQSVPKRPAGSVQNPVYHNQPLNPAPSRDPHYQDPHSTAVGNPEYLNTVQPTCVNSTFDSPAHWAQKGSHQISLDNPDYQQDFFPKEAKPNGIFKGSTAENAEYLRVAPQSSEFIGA

SMILES | remaining binding at 10 µM (EGFR(G719S)) [%] | remaining binding at 10 µM (PIK3CA(I800L)) [%] | remaining binding at 10 µM (p38-delta) [%] | remaining binding at 10 µM (FLT3(D835V)) [%] | remaining binding at 10 µM (BRAF(V600E)) [%] | remaining binding at 10 µM (TIE1) [%] | remaining binding at 10 µM (EPHA2) [%] | remaining binding at 10 µM (MST1) [%] | remaining binding at 10 µM [1] [%] | remaining binding at 10 µM (MUSK) [%] | remaining binding at 10 µM (PFPK5(P. falciparum)) [%] | remaining binding at 10 µM [2] [%] | remaining binding at 10 µM (MAP3K1) [%] | remaining binding at 10 µM (FGFR1) [%] | remaining binding at 10 µM (LCK) [%] | remaining binding at 10 µM [3] [%] | remaining binding at 10 µM (STK35) [%] | remaining binding at 10 µM (PRKG1) [%] | remaining binding at 10 µM (ICK) [%] | remaining binding at 10 µM (YANK3) [%] | other results
COc1cc(N2CCC(N3CCN(C)CC3)CC2)ccc1Nc1ncc2c(n1)N(C)c1sc(C)nc1C(=O)N2 [Compound 3, 6-((2-methoxy-4-(4-(4-methylpiperazin-1-yl)piperidin-1-yl)phenyl)amino)-2,4-dimethyl-4,9-dihydro-10H-pyrimido[5,4-b]thiazolo[5,4-e][1,4]diazepin-10-one] | 48 | 100 | 82 | 57 | 100 | 80 | 91 | 89 | 3.9 | 92 | 100 | 81 | 100 | 75 | 45 | 19 | 89 | 93 | 100 | 68 | remaining binding at 10 µM [4]: 4.3%; remaining binding at 10 µM (AMPK-alpha1): 79%; remaining binding at 10 µM (STK36): 61%; remaining binding at 10 µM (PIK3CA(Q546K)): 100%; remaining binding at 10 µM (PRKCI): 73%; remaining binding at 10 µM (HIPK2): 100%; remaining binding at 10 µM (MAPKAPX5; MAPKAPX5, 10000 nM): 100%; remaining binding at 10 µM (DAPK3): 62%; remaining binding at 10 µM (LIMK2): 91%; remaining binding at 10 µM (ERBB4): 57%; remaining binding at 10 µM [5]: 100%; remaining binding at 10 µM (SBK1): 100%; remaining binding at 10 µM [6]: 100%; remaining binding at 10 µM (NEK2): 84%
COc1cc(N2CCC(N3CCN(C)CC3)CC2)ccc1Nc1ncc2c(n1)N(C)c1sc(C)nc1C(=O)N2C [Compound 5, 6-((2-methoxy-4-(4-(4-methylpiperazin-1-yl)piperidin-1-yl)phenyl)amino)-2,4,9-trimethyl-4,9-dihydro-10H-pyrimido[5,4-b]thiazolo[5,4-e][1,4]diazepin-10-one] | 100 | 70 | 100 | 97 | 97 | 96 | 91 | 100 | 54 | 100 | 97 | 55 | 100 | 90 | 100 | 95 | 100 | 100 | 100 | 98 | remaining binding at 10 µM [4]: 100%; remaining binding at 10 µM (AMPK-alpha1): 91%; remaining binding at 10 µM (STK36): 100%; remaining binding at 10 µM (PIK3CA(Q546K)): 94%; remaining binding at 10 µM (PRKCI): 97%; remaining binding at 10 µM (HIPK2): 100%; remaining binding at 10 µM (MAPKAPX5; MAPKAPK5, 10000 nM): 93%; remaining binding at 10 µM (DAPK3): 97%; remaining binding at 10 µM (LIMK2): 98%; remaining binding at 10 µM (ERBB4): 100%; remaining binding at 10 µM [5]: 100%; remaining binding at 10 µM (SBK1): 98%; remaining binding at 10 µM [6]: 100%; remaining binding at 10 µM (NEK2): 100%
